Results from patent US20230078764A1 (Yumanity Therapeutics, Inc., priority 2019, published 2023).
Like-named read-outs stand apart in the source and are kept apart here.

Key:
[1] = biological target: T1, human SCD1 (Homo sapiens, UniProt O00767); assay: Growth inhibition of yeast strain expressing human SCD1 as sole desaturase (OLE1 deleted), OD600 readout; type: cell-based
T1 construct: expressed in transfected cells; host or cells: yeast strain with OLE1 deleted, plasmid-borne human SCD1 (selected in SD-Ura)
T1 sequence (O00767 1-359): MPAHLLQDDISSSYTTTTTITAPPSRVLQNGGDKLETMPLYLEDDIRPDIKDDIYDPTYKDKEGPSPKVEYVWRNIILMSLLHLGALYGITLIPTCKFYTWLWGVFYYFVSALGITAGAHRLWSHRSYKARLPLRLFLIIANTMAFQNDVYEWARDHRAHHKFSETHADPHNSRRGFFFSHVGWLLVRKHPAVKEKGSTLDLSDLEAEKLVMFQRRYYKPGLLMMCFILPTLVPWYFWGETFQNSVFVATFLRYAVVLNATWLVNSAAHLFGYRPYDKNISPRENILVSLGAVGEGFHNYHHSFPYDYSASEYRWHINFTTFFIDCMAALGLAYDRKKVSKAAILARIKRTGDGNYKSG

[2] = biological target: T2, human SCD5 (Homo sapiens, UniProt Q86SK9); assay: Growth inhibition of yeast strain expressing human SCD5 as sole desaturase (OLE1 deleted), OD600 readout; type: cell-based
T2 construct: expressed in transfected cells; host or cells: yeast strain with OLE1 deleted, plasmid-borne human SCD5 (selected in SD-Ura)
T2 sequence (Q86SK9 1-330): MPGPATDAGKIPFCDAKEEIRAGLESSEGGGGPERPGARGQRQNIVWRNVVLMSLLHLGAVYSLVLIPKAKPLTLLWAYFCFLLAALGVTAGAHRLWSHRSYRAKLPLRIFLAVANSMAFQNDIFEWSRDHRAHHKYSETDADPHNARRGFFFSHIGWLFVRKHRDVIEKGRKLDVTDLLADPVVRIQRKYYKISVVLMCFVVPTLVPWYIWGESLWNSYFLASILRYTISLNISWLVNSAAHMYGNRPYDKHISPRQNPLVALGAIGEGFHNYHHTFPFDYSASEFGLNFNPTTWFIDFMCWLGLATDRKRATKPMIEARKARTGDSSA

[3] = yeast strain expressing human SCD1 as sole desaturase, growth (OD600) after 40 h at 30° C., read-out: SCD1 IC50
[4] = yeast strain expressing human SCD5 as sole desaturase, growth (OD600) after 40 h at 30° C., read-out: SCD5 IC50

Compound | IC50 [1, 3] | IC50 [2, 4] | IC50 ([1]; SCD1 IC50) | IC50 ([2]; SCD5 IC50)
CN1N=C(C(=O)Nc2ccc(Cc3cccc(F)c3)cc2)CCC1=O [Compound 1, N-(4-(3-fluorobenzyl)phenyl)-1-methyl-6-oxo-1,4,5,6-tetrahydropyridazine-3-carboxamide] | > 45000 nM | 5160 nM | – | –
CN1N=C(C(=O)Nc2ccc(Cc3cccc(Cl)c3)cc2)CCC1=O [Compound 2, N-(4-(3-chlorobenzyl)phenyl)-1-methyl-6-oxo-1,4,5,6-tetrahydropyridazine-3-carboxamide] | > 45000 nM | 2650 nM | – | –
Cn1nc(C(=O)Nc2ccc(Cc3cccc(Cl)c3)cc2)ccc1=O [Compound 3, N-(4-(3-chlorobenzyl)phenyl)-1-methyl-6-oxo-1,6-dihydropyridazine-3-carboxamide] | 990 nM | 450 nM | – | –
Cn1nc(C(=O)Nc2ccc(Cc3cccc(F)c3)cc2)ccc1=O [Compound 4, N-(4-(3-fluorobenzyl)phenyl)-1-methyl-6-oxo-1,6-dihydropyridazine-3-carboxamide] | 1730 nM | 580 nM | – | –
Cn1cc(C(=O)Nc2ccc(Cc3cccc(F)c3)cc2)ccc1=O [Compound 5, N-(4-(3-fluorobenzyl)phenyl)-1-methyl-6-oxo-1,6-dihydropyridine-3-carboxamide] | 3340 nM | 1870 nM | – | –
CN1N=C(C(=O)Nc2ccc(Cc3cccc(F)c3)cn2)CCC1=O [Compound 6, N-(5-(3-fluorobenzyl)pyridin-2-yl)-1-methyl-6-oxo-1,4,5,6-tetrahydropyridazine-3-carboxamide] | > 45000 nM | 1020 nM | – | –
CN1N=C(C(=O)Nc2ccc(Cc3cccc(C#N)c3)cn2)CCC1=O [Compound 8, N-(5-(3-cyanobenzyl)pyridin-2-yl)-1-methyl-6-oxo-1,4,5,6-tetrahydropyridazine-3-carboxamide] | > 45000 nM | – | – | –
CN1N=C(C(=O)Nc2ccc(Cc3ccc(F)c(C#N)c3)cn2)CCC1=O [Compound 10, N-(5-(3-cyano-4-fluorobenzyl)pyridin-2-yl)-1-methyl-6-oxo-1,4,5,6-tetrahydropyridazine-3-carboxamide] | 9540 nM | 500 nM | – | –
CN1N=C(C(=O)Nc2ccc(Cc3ccc(Cl)c(F)c3)cn2)CCC1=O [Compound 11, N-(5-(4-chloro-3-fluorobenzyl)pyridin-2-yl)-1-methyl-6-oxo-1,4,5,6-tetrahydropyridazine-3-carboxamide] | 2740 nM | 80 nM | – | –
CN1N=C(C(=O)Nc2ccc(Cc3ccccc3)cn2)CCC1=O [Compound 13, N-(5-benzylpyridin-2-yl)-1-methyl-6-oxo-1,4,5,6-tetrahydropyridazine-3-carboxamide] | > 45000 nM | – | – | –
CN1N=C(C(=O)Nc2ccc(Cc3cc(C(F)(F)F)ccn3)cn2)CCC1=O [Compound 14, 1-methyl-6-oxo-N-(5-((4-(trifluoromethyl)pyridin-2-yl)methyl)pyridin-2-yl)-1,4,5,6-tetrahydropyridazine-3-carboxamide] | 17300 nM | 3740 nM | – | –
COc1cc(Cl)cc(Cc2ccc(NC(=O)c3ccc(=O)n(C)c3)nc2)c1 [Compound 50, N-(5-(3-chloro-5-methoxybenzyl)pyridin-2-yl)-1-methyl-6-oxo-1,6-dihydropyridine-3-carboxamide] | – | – | 1530 nM | 20 nM
CN1N=C(C(=O)Nc2ccc(Cc3cc(Cl)cc(C#N)c3)cn2)CCC1=O [Compound 51, N-(5-(3-chloro-5-cyanobenzyl)pyridin-2-yl)-1-methyl-6-oxo-1,4,5,6-tetrahydropyridazine-3-carboxamide] | > 45000 nM | 1560 nM | – | –
COc1cc(F)cc(Cc2ccc(NC(=O)c3ccc(=O)n(C)c3)nc2)c1 [Compound 52, N-(5-(3-fluoro-5-methoxybenzyl)pyridin-2-yl)-1-methyl-6-oxo-1,6-dihydropyridine-3-carboxamide] | – | – | 8210 nM | 130 nM
Cn1cc(C(=O)Nc2ccc(Cc3ccc(F)cc3)cn2)ccc1=O [Compound 53, N-(5-(4-fluorobenzyl)pyridin-2-yl)-1-methyl-6-oxo-1,6-dihydropyridine-3-carboxamide] | – | – | 280 nM | 10 nM
COc1cc(Cc2ccc(NC(=O)c3ccc(=O)n(C)c3)nc2)ccc1F [Compound 54, N-(5-(4-fluoro-3-methoxybenzyl)pyridin-2-yl)-1-methyl-6-oxo-1,6-dihydropyridine-3-carboxamide] | – | – | 12000 nM | 580 nM
Cn1cc(C(=O)Nc2ccc(Cc3cccc(F)c3)cn2)ccc1=O [Compound 55, N-(5-(3-fluorobenzyl)pyridin-2-yl)-1-methyl-6-oxo-1,6-dihydropyridine-3-carboxamide] | – | – | 1210 nM | 160 nM
Cn1cc(C(=O)Nc2ccc(Cc3cc(F)c(F)c(F)c3)cn2)ccc1=O [Compound 56, 1-methyl-6-oxo-N-(5-(3,4,5-trifluorobenzyl)pyridin-2-yl)-1,6-dihydropyridine-3-carboxamide] | – | – | 20 nM | 10 nM
Cn1cc(NC(=O)c2ccc(Cc3cccc(Cl)c3)cn2)ccc1=O [Compound 57, 5-(3-chlorobenzyl)-N-(1-methyl-6-oxo-1,6-dihydropyridin-3-yl)picolinamide] | 560 nM | 10 nM | – | –
N#Cc1ccc(C(=O)Nc2ccc(Cc3cccc(F)c3)cn2)nc1 [Compound 135, 5-cyano-N-(5-(3-fluorobenzyl)pyridin-2-yl)picolinamide] | 14100 nM | – | – | –
N#Cc1ccc(C(=O)Nc2ccc(Cc3cccc(F)c3)cn2)nc1 [Compound 142, 5-cyano-N-(5-(3-fluorobenzyl)pyridin-2-yl)picolinamide] | > 45000 nM | – | – | –
Cc1nnc2ccc(C(=O)Nc3ccc(Cc4cccc(F)c4)cn3)cn12 [Compound 152, N-(5-(3-fluorobenzyl)pyridin-2-yl)-3-methyl-[1,2,4]triazolo[4,3-a]pyridine-6-carboxamide] | > 45000 nM | – | – | –
CN1N=C(C(=O)Nc2ccc(Cc3cccc(F)c3)nn2)CCC1=O [Compound 193, N-(6-(3-fluorobenzyl)pyridazin-3-yl)-1-methyl-6-oxo-1,4,5,6-tetrahydropyridazine-3-carboxamide] | > 45000 nM | – | – | –
Cn1cc(C(=O)Nc2ccc(COc3cccc(Cl)c3)cn2)ccc1=O [Compound 263] | > 45000 nM | – | – | –

More lines, main results first:

IC50 [1, 3] | IC50 [2, 4] | Compound | IC50 ([1]; SCD1 IC50) | IC50 ([2]; SCD5 IC50)
> 45000 nM | – | Cn1cc(C(=O)Nc2ccc(Oc3cccc(F)c3)cn2)ccc1=O [Compound 160, N-[5-(3-fluorophenoxy)pyridin-2-yl]-1-methyl-6-oxo-1,6-dihydropyridine-3-carboxamide] | – | –
> 45000 nM | – | Cn1nc(C(=O)Nc2ccc(Oc3cccc(F)c3)cn2)ccc1=O [Compound 162, N-[5-(3-fluorophenoxy)pyridin-2-yl]-1-methyl-6-oxo-1,6-dihydropyridazine-3-carboxamide] | – | –
> 45000 nM | – | CCn1cc(C(=O)Nc2ccc(Oc3cccc(F)c3)cn2)ccc1=O [Compound 164, 1-ethyl-N-[5-(3-fluorophenoxy)pyridin-2-yl]-6-oxo-1,6-dihydropyridine-3-carboxamide] | – | –
> 45000 nM | – | COc1cccc(Cc2ccc(NC(=O)C3=NN(C)C(=O)CC3)nn2)c1 [Compound 182, N-(6-(3-methoxybenzyl)pyridazin-3-yl)-1-methyl-6-oxo-1,4,5,6-tetrahydropyridazine-3-carboxamide] | – | –
1280 nM | – | Cn1nc(C(=O)Nc2cnn(Cc3cccc(Cl)c3)c2)ccc1=O [Compound 215, N-(1-(3-chlorobenzyl)-1H-pyrazol-4-yl)-1-methyl-6-oxo-1,6-dihydropyridazine-3-carboxamide] | – | –
– | 4750 nM | CN1N=C(C(=O)Nc2ccc(Cc3ccccc3)nn2)CCC1=O [Compound 253] | – | –
– | 4740 nM | CN1N=C(c2nc3cc(Cc4cccc(Cl)c4)cnc3[nH]2)CCC1=O [Compound 255] | – | –
– | > 45000 nM | CN1N=C(C(=O)Nc2ccc(/C=C/c3cccc(Cl)c3)nn2)CCC1=O [Compound 418] | – | –
> 45000 nM | – | CN1N=C(C(=O)Nc2ccc(Cc3ccc(F)cc3)cn2)CCC1=O [Example 17, N-(5-(4-fluorobenzyl)pyridin-2-yl)-1-methyl-6-oxo-1,4,5,6-tetrahydropyridazine-3-carboxamide] | – | –
> 45000 nM | – | CN1N=C(C(=O)Nc2ccc(Cc3ccc4c(c3)COC4)cn2)CCC1=O [Example 19, N-(5-((1,3-dihydroisobenzofuran-5-yl)methyl)pyridin-2-yl)-1-methyl-6-oxo-1,4,5,6-tetrahydropyridazine-3-carboxamide] | – | –
> 45000 nM | – | CN1N=C(C(=O)Nc2ccc(Cc3cc(F)cc(F)c3)cn2)CCC1=O [Example 22, N-(5-(3,5-difluorobenzyl)pyridin-2-yl)-1-methyl-6-oxo-1,4,5,6-tetrahydropyridazine-3-carboxamide] | – | –
> 45000 nM | – | CN1N=C(C(=O)Nc2ccc(Cc3cc(F)cc(C#N)c3)cn2)CCC1=O [Example 26, N-(5-(3-cyano-5-fluorobenzyl)pyridin-2-yl)-1-methyl-6-oxo-1,4,5,6-tetrahydropyridazine-3-carboxamide] | – | –
